Patent publication US11000033B2, “Ketone or oxime compound, and herbicide” (NISSAN CHEMICAL CORPORATION, priority 2014, dated 2021)

How the values were obtained:
Assay type in all cases: in vivo
rice plant = test: Test Example 5: effect on crop by foliage application, plastic box (symbol b); settings: 320 g/ha, 3 weeks after application
From the text: (§1) Herbicidal Effect Test by Foliage Application
(§2) Sterilized diluvial soil was placed in a plastic box having a length of 21 cm, a width of 13 cm, and a depth of 7 cm. Each of the seeds of Digitaria ciliaris, Setaria viridis, Echinochloa crus-galli var. crus-galli, Avena fatua, Alopecurus myosuroides, Lolium multiflorum Lam., Apera spica-venti, Abutilon theophrasti, Amaranthus retroflexus, Chenopodium album, Stellaria media, Galium spurium, Veronica persica, corn, soybean, rice plant, wheat, beet, and rapeseed was sowed in a spot-like manner and was covered with the soil of a thickness of about 1.5 cm. Thereafter, the plants were grown in the greenhouse of 25° C. to 30° C.

Lolium multiflorum Lam. = test: Test Example 5: herbicidal effect by foliage application, plastic box (symbol K); settings: 320 g/ha, 3 weeks after application
From the text: as §1
as §2, with “30° C. After the plants were grown for 14 days, the emulsion agent of the compound of the present invention prepared in accordance with Formulation Example 2 was diluted with water so as to be a predetermined herbicide amount and the diluted emulsion agent was uniformly applied to a foliage part with a small-size spray. 3 weeks later from the herbicide application, the effect to each plant was investigated in accordance with the criteria of Test Example 1.” for “30° C.”

Galium spurium = test: Test Example 5: herbicidal effect by foliage application, plastic box (symbol Q); settings: 320 g/ha, 3 weeks after application
From the text: as §1
as §2, with “30° C. After the plants were grown for 14 days, the emulsion agent of the compound of the present invention prepared in accordance with Formulation Example 2 was diluted with water so as to be a predetermined herbicide amount and the diluted emulsion agent was uniformly applied to a foliage part with a small-size spray. 3 weeks later from the herbicide application, the effect to each plant was investigated in accordance with the criteria of Test Example 1.” for “30° C.”

Amaranthus retroflexus = test: Test Example 5: herbicidal effect by foliage application, plastic box (symbol N); settings: 320 g/ha, 3 weeks after application
From the text: as §1
as §2, with “30° C. After the plants were grown for 14 days, the emulsion agent of the compound of the present invention prepared in accordance with Formulation Example 2 was diluted with water so as to be a predetermined herbicide amount and the diluted emulsion agent was uniformly applied to a foliage part with a small-size spray. 3 weeks later from the herbicide application, the effect to each plant was investigated in accordance with the criteria of Test Example 1.” for “30° C.”

Veronica persica = test: Test Example 5: herbicidal effect by foliage application, plastic box (symbol R); settings: 320 g/ha, 3 weeks after application
From the text: as §1
as §2, with “30° C. After the plants were grown for 14 days, the emulsion agent of the compound of the present invention prepared in accordance with Formulation Example 2 was diluted with water so as to be a predetermined herbicide amount and the diluted emulsion agent was uniformly applied to a foliage part with a small-size spray. 3 weeks later from the herbicide application, the effect to each plant was investigated in accordance with the criteria of Test Example 1.” for “30° C.”

Digitaria ciliaris = test: Test Example 5: herbicidal effect by foliage application, plastic box (symbol F); settings: 320 g/ha, 3 weeks after application
From the text: as §1
as §2, with “30° C. After the plants were grown for 14 days, the emulsion agent of the compound of the present invention prepared in accordance with Formulation Example 2 was diluted with water so as to be a predetermined herbicide amount and the diluted emulsion agent was uniformly applied to a foliage part with a small-size spray. 3 weeks later from the herbicide application, the effect to each plant was investigated in accordance with the criteria of Test Example 1.” for “30° C.”

soybean = test: Test Example 5: effect on crop by foliage application, plastic box (symbol d); settings: 320 g/ha, 3 weeks after application
From the text: as §1, §2

[1] = tested on: directly sowed rice plant; test: Test Example 3: effect on crop by foliage application, Wagner pot (symbol b); settings: application herbicide amount 320 g/ha
Method: as §1
After alluvial soil was placed into 1/10000 are of Wagner pot, water was poured and mixed to form a submerged condition having a water depth of 0.1 cm to 0.5 cm. Seeds of Echinochloa crus-galli var. crus-galli, Leptochloa chinensis, Cyperus difformis, and rice were sowed and the pot was placed in the greenhouse of 25° C. to 30° C. to grow the plants.

rapeseed = test: Test Example 5: effect on crop by foliage application, plastic box (symbol g); settings: 320 g/ha, 3 weeks after application
From the text: as §1, §2

Avena fatua = test: Test Example 5: herbicidal effect by foliage application, plastic box (symbol I); settings: 320 g/ha, 3 weeks after application
From the text: as §1
as §2, with “30° C. After the plants were grown for 14 days, the emulsion agent of the compound of the present invention prepared in accordance with Formulation Example 2 was diluted with water so as to be a predetermined herbicide amount and the diluted emulsion agent was uniformly applied to a foliage part with a small-size spray. 3 weeks later from the herbicide application, the effect to each plant was investigated in accordance with the criteria of Test Example 1.” for “30° C.”

Stellaria media = test: Test Example 5: herbicidal effect by foliage application, plastic box (symbol P); settings: 320 g/ha, 3 weeks after application
From the text: as §1
as §2, with “30° C. After the plants were grown for 14 days, the emulsion agent of the compound of the present invention prepared in accordance with Formulation Example 2 was diluted with water so as to be a predetermined herbicide amount and the diluted emulsion agent was uniformly applied to a foliage part with a small-size spray. 3 weeks later from the herbicide application, the effect to each plant was investigated in accordance with the criteria of Test Example 1.” for “30° C.”

[2] = tested on: Echinochloa crus-galli var. crus-galli; test: Test Example 3: herbicidal effect by foliage application, Wagner pot (symbol H); settings: application herbicide amount 320 g/ha
Method: as §1
(§3) After alluvial soil was placed into 1/10000 are of Wagner pot, water was poured and mixed to form a submerged condition having a water depth of 0.1 cm to 0.5 cm. Seeds of Echinochloa crus-galli var. crus-galli, Leptochloa chinensis, Cyperus difformis, and rice were sowed and the pot was placed in the greenhouse of 25° C. to 30° C. to grow the plants. After the plants were grown for 14 days, the emulsion agent of the compound of the present invention prepared in accordance with Formulation Example 2 was diluted with water so as to be a predetermined herbicide amount and the diluted emulsion agent was uniformly applied to a foliage part with a small-size spray. 3 weeks later from the herbicide application, the effect to each plant was investigated in accordance with the criteria of Test Example 1.

Chenopodium album = test: Test Example 5: herbicidal effect by foliage application, plastic box (symbol O); settings: 320 g/ha, 3 weeks after application
From the text: as §1
as §2, with “30° C. After the plants were grown for 14 days, the emulsion agent of the compound of the present invention prepared in accordance with Formulation Example 2 was diluted with water so as to be a predetermined herbicide amount and the diluted emulsion agent was uniformly applied to a foliage part with a small-size spray. 3 weeks later from the herbicide application, the effect to each plant was investigated in accordance with the criteria of Test Example 1.” for “30° C.”

Leptochloa chinensis = test: Test Example 3: herbicidal effect by foliage application, Wagner pot (symbol D); settings: application herbicide amount 320 g/ha
Method: as §1, §3

beet = test: Test Example 5: effect on crop by foliage application, plastic box (symbol f); settings: 320 g/ha, 3 weeks after application
From the text: as §1, §2

Abutilon theophrasti = test: Test Example 5: herbicidal effect by foliage application, plastic box (symbol M); settings: 320 g/ha, 3 weeks after application
From the text: as §1
as §2, with “30° C. After the plants were grown for 14 days, the emulsion agent of the compound of the present invention prepared in accordance with Formulation Example 2 was diluted with water so as to be a predetermined herbicide amount and the diluted emulsion agent was uniformly applied to a foliage part with a small-size spray. 3 weeks later from the herbicide application, the effect to each plant was investigated in accordance with the criteria of Test Example 1.” for “30° C.”

Setaria viridis = test: Test Example 5: herbicidal effect by foliage application, plastic box (symbol G); settings: 320 g/ha, 3 weeks after application
From the text: as §1
as §2, with “30° C. After the plants were grown for 14 days, the emulsion agent of the compound of the present invention prepared in accordance with Formulation Example 2 was diluted with water so as to be a predetermined herbicide amount and the diluted emulsion agent was uniformly applied to a foliage part with a small-size spray. 3 weeks later from the herbicide application, the effect to each plant was investigated in accordance with the criteria of Test Example 1.” for “30° C.”

[3] = tested on: Echinochloa crus-galli var. crus-galli; test: Test Example 5: herbicidal effect by foliage application, plastic box (symbol H); settings: 320 g/ha, 3 weeks after application
From the text: as §1
as §2, with “30° C. After the plants were grown for 14 days, the emulsion agent of the compound of the present invention prepared in accordance with Formulation Example 2 was diluted with water so as to be a predetermined herbicide amount and the diluted emulsion agent was uniformly applied to a foliage part with a small-size spray. 3 weeks later from the herbicide application, the effect to each plant was investigated in accordance with the criteria of Test Example 1.” for “30° C.”

Alopecurus myosuroides = test: Test Example 5: herbicidal effect by foliage application, plastic box (symbol J); settings: 320 g/ha, 3 weeks after application
From the text: as §1
as §2, with “30° C. After the plants were grown for 14 days, the emulsion agent of the compound of the present invention prepared in accordance with Formulation Example 2 was diluted with water so as to be a predetermined herbicide amount and the diluted emulsion agent was uniformly applied to a foliage part with a small-size spray. 3 weeks later from the herbicide application, the effect to each plant was investigated in accordance with the criteria of Test Example 1.” for “30° C.”

corn = test: Test Example 5: effect on crop by foliage application, plastic box (symbol c); settings: 320 g/ha, 3 weeks after application
From the text: as §1, §2

wheat = test: Test Example 5: effect on crop by foliage application, plastic box (symbol e); settings: 320 g/ha, 3 weeks after application
From the text: as §1, §2

Apera spica-venti = test: Test Example 5: herbicidal effect by foliage application, plastic box (symbol L); settings: 320 g/ha, 3 weeks after application
From the text: as §1
as §2, with “30° C. After the plants were grown for 14 days, the emulsion agent of the compound of the present invention prepared in accordance with Formulation Example 2 was diluted with water so as to be a predetermined herbicide amount and the diluted emulsion agent was uniformly applied to a foliage part with a small-size spray. 3 weeks later from the herbicide application, the effect to each plant was investigated in accordance with the criteria of Test Example 1.” for “30° C.”

## CON=C(C)CC1CC(O)=C(c2c(C)cc(-c3ccncc3)cc2C)C1=O (stereo not shown) [6-105]
Rice plant
  b: directly sowed rice plant, effect on crop (criteria of Test Example 1): 3 (Herbicidal ratio of 40% or higher and lower than 70%)
Lolium multiflorum Lam.
  K: Lolium multiflorum Lam., herbicidal effect (criteria of Test Example 1): 4 (Herbicidal ratio of 70% or higher and lower than 90%)
Galium spurium
  Q: Galium spurium, herbicidal effect (criteria of Test Example 1): 3 (Herbicidal ratio of 40% or higher and lower than 70%)
Amaranthus retroflexus
  N: Amaranthus retroflexus, herbicidal effect (criteria of Test Example 1): 0 (Herbicidal ratio of 5% or lower (almost no effect))
Veronica persica
  R: Veronica persica, herbicidal effect (criteria of Test Example 1): 3 (Herbicidal ratio of 40% or higher and lower than 70%)
Digitaria ciliaris
  F: Digitaria ciliaris, herbicidal effect (criteria of Test Example 1): 5 (Herbicidal ratio of 90% or more (almost completely withered))
soybean
  d: soybean, effect on crop (criteria of Test Example 1): 0 (Herbicidal ratio of 5% or lower (almost no effect))
[1]
  effect on crop b (directly sowed rice plant), grade 0-5: 4 (Herbicidal ratio of 70% or higher and lower than 90%)
rapeseed
  g: rapeseed, effect on crop (criteria of Test Example 1): 4 (Herbicidal ratio of 70% or higher and lower than 90%)
Avena fatua
  I: Avena fatua, herbicidal effect (criteria of Test Example 1): 2 (Herbicidal ratio of 20% or higher and lower than 40%)
Stellaria media
  P: Stellaria media, herbicidal effect (criteria of Test Example 1): 0 (Herbicidal ratio of 5% or lower (almost no effect))
[2]
  herbicidal effect on H (Echinochloa crus-galli var. crus-galli), grade 0-5: 3 (Herbicidal ratio of 40% or higher and lower than 70%)
Chenopodium album
  O: Chenopodium album, herbicidal effect (criteria of Test Example 1): 0 (Herbicidal ratio of 5% or lower (almost no effect))
Leptochloa chinensis
  herbicidal effect on D (Leptochloa chinensis), grade 0-5: 4 (Herbicidal ratio of 70% or higher and lower than 90%)
beet
  f: beet, effect on crop (criteria of Test Example 1): 0 (Herbicidal ratio of 5% or lower (almost no effect))
Abutilon theophrasti
  M: Abutilon theophrasti, herbicidal effect (criteria of Test Example 1): 0 (Herbicidal ratio of 5% or lower (almost no effect))
Setaria viridis
  G: Setaria viridis, herbicidal effect (criteria of Test Example 1): 5 (Herbicidal ratio of 90% or more (almost completely withered))
[3]
  H: Echinochloa crus-galli var. crus-galli, herbicidal effect (criteria of Test Example 1): 5 (Herbicidal ratio of 90% or more (almost completely withered))
Alopecurus myosuroides
  J: Alopecurus myosuroides, herbicidal effect (criteria of Test Example 1): 2 (Herbicidal ratio of 20% or higher and lower than 40%)
corn
  c: corn, effect on crop (criteria of Test Example 1): 3 (Herbicidal ratio of 40% or higher and lower than 70%)
wheat
  e: wheat, effect on crop (criteria of Test Example 1): 0 (Herbicidal ratio of 5% or lower (almost no effect))
Apera spica-venti
  L: Apera spica-venti, herbicidal effect (criteria of Test Example 1): 2 (Herbicidal ratio of 20% or higher and lower than 40%)
